As usually defined, the IC50 is the concentration that inhibits the measured activity by half. Broadly, the viability, T/C is the result in the treated group divided by that in the control group, in per cent.

The experiment concerns 168753-222-R-J1-PDC complex spheroid viability. Description: Anticancer human tumor 168753-222-R-J1-PDC patient-derived bladder carcinoma cell line growth inhibition [CLK]. Conditions: for viability, T/C: stronger effect = lower value. The method, boiled down:
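Multi-cell-type spheroids combined patient-derived tumor cells with HUVEC endothelial cells and human mesenchymal stem cells. Paired agents were dosed in half-log steps down from about clinical Cmax, or from 10 microM where Cmax was unknown.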

The mark [1] stands for this setting: curve of first compound, second compound 0.0316 µM.
Where [2] appears, read: curve of first compound, second compound 0.1 µM.
[3] abbreviates: curve of first compound, second compound 0.316 µM.
[4] abbreviates: curve of first compound, second compound 1 µM.
Setting [5] is: curve of first compound, second compound 3.16 µM.
Setting [6] is: curve of first compound, second compound 10 µM.
Setting [7] is: second compound 0.0316 µM, first compound 0.0316 µM.
Where [8] appears, read: second compound 0.0316 µM, first compound 0.1 µM.
Setting [9] is: second compound 0.0316 µM, first compound 0.316 µM.
[10] abbreviates: second compound 0.0316 µM, first compound 1 µM.
[11] abbreviates: second compound 0.0316 µM, first compound 3.16 µM.
[12] abbreviates: second compound 0.0316 µM, first compound 10 µM.
The mark [13] stands for this setting: second compound 0.1 µM, first compound 0.0316 µM.
The mark [14] stands for this setting: second compound 0.1 µM, first compound 0.1 µM.
The mark [15] stands for this setting: second compound 0.1 µM, first compound 0.316 µM.
Where [16] appears, read: second compound 0.1 µM, first compound 1 µM.
The mark [17] stands for this setting: second compound 0.1 µM, first compound 3.16 µM.
Where [18] appears, read: second compound 0.1 µM, first compound 10 µM.
Setting [19] is: second compound 0.316 µM, first compound 0.0316 µM.
Setting [20] is: second compound 0.316 µM, first compound 0.1 µM.
Where [21] appears, read: second compound 0.316 µM, first compound 0.316 µM.
The mark [22] stands for this setting: second compound 0.316 µM, first compound 1 µM.
Where [23] appears, read: second compound 0.316 µM, first compound 3.16 µM.
Where [24] appears, read: second compound 0.316 µM, first compound 10 µM.
The mark [25] stands for this setting: second compound 1 µM, first compound 0.0316 µM.
The mark [26] stands for this setting: second compound 1 µM, first compound 0.1 µM.
The mark [27] stands for this setting: second compound 1 µM, first compound 0.316 µM.
Setting [28] is: second compound 1 µM, first compound 1 µM.
[29] abbreviates: second compound 1 µM, first compound 3.16 µM.
Setting [30] is: second compound 1 µM, first compound 10 µM.
Where [31] appears, read: second compound 3.16 µM, first compound 0.0316 µM.
[32] abbreviates: second compound 3.16 µM, first compound 0.1 µM.
Where [33] appears, read: second compound 3.16 µM, first compound 0.316 µM.
Where [34] appears, read: second compound 3.16 µM, first compound 1 µM.
Where [35] appears, read: second compound 3.16 µM, first compound 3.16 µM.
Setting [36] is: second compound 3.16 µM, first compound 10 µM.
The mark [37] stands for this setting: second compound 10 µM, first compound 0.0316 µM.
Where [38] appears, read: second compound 10 µM, first compound 0.1 µM.
Setting [39] is: second compound 10 µM, first compound 0.316 µM.
The mark [40] stands for this setting: second compound 10 µM, first compound 1 µM.
The mark [41] stands for this setting: second compound 10 µM, first compound 3.16 µM.
Where [42] appears, read: second compound 10 µM, first compound 10 µM.

Each structure is given as a SMILES string. Where “and” joins values, the source holds several entries; their conditions need not be identical. Equal values may be shown once.
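Also: viability measured after seven days of drug exposure.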
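For viability, T/C in this document: luminescence signal used as surrogate for viable cell amount; 100% = DMSO vehicle control wells.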

Take `COc1ccc([C@@H](O)c2cc(-c3ncnc4cc(N5CCOCC5)ccc34)c(F)cc2Cl)nn1` + CN1CCN(c2cc(C(=O)Nc3cc4cc(-c5cnn(C)c5)ccc4cn3)ccn2)CC1: the IC50 reads like this: under setting [1], 361 nM; under setting [2], 47.5 nM; under setting [3], < 31.6 nM; under setting [4], < 31.6 nM; under setting [5], < 31.6 nM; under setting [6], < 31.6 nM. The viability, T/C is, setting by setting: under setting [7], 95.5%; under setting [8], 82.1%; under setting [9], 55.6%; under setting [10], 19.2%; under setting [11], 11.7%; under setting [12], 7.52%. Besides, the viability, T/C is 63% under setting [13]; 26.1% under setting [14]; 13.6% under setting [15]; 13.1% under setting [16]; 10.1% under setting [17]; 7.24% under setting [18]. Further, the viability, T/C is, setting by setting: under setting [19], 9.76%; under setting [20], 8.36%; under setting [21], 8.98%; under setting [22], 7.9%; under setting [23], 7.78%; under setting [24], 3.67%. Also, the viability, T/C reads like this: under setting [25], 0.16%; under setting [26], 0.12%; under setting [27], 0.13%; under setting [28], 0.07%; under setting [29], 0.79%; under setting [30], 0.13%. The viability, T/C reads like this: under setting [31], 0.05%; under setting [32], 0.08%; under setting [33], 0.15%; under setting [34], 0.05%; under setting [35], 0.09%; under setting [36], 0.54%. The viability, T/C is, setting by setting: under setting [37], 0.04%; under setting [38], 0.81%; under setting [39], 1.23%; under setting [40], 0.1%; under setting [41], 0.4%; under setting [42], 0.47%.
For the compound `COc1cccc2c1C(=O)c1c(O)c3c(c(O)c1C2=O)CC(O)(C(=O)CO)CC3OC1CC(N)C(O)C(C)O1` (centres undefined), the viability, T/C was 49.4% and 85.7% (compound 0.0316 µM); 38.7% and 47.7% (compound 0.1 µM); 28.3% and 46.2% (compound 0.316 µM); 7.17% and 21% (compound 1 µM); 7.34% and 13.8% (compound 3.16 µM); 0.22% and 0.15% (compound 10 µM). For the same compound, the IC50 (curve of compound) is < 31.6 nM and 159 nM.
As to `CC1COCCN1c1cc(C2(S(C)(=N)=O)CC2)nc(-c2ccnc3[nH]ccc23)n1` (centres undefined) + CN1CCN(c2cc(C(=O)Nc3cc4cc(-c5cnn(C)c5)ccc4cn3)ccn2)CC1, the IC50 was 1750 nM under setting [1]; 115 nM under setting [2]; < 31.6 nM under setting [3]; < 31.6 nM under setting [4]; < 31.6 nM under setting [5]; < 31.6 nM under setting [6]. In addition, the viability, T/C was 47.2% under setting [7]; 74.3% under setting [8]; 67.3% under setting [9]; 89.2% under setting [10]; 29.4% under setting [11]; 26.9% under setting [12]. Also, the viability, T/C was 61.5% under setting [13]; 53.8% under setting [14]; 22% under setting [15]; 30.5% under setting [16]; 15.8% under setting [17]; 15.1% under setting [18]. For the same compound, the viability, T/C reads like this: under setting [19], 10.6%; under setting [20], 9.28%; under setting [21], 9%; under setting [22], 7.71%; under setting [23], 7.38%; under setting [24], 4.64%. Also, the viability, T/C is 0.24% under setting [25]; 0.3% under setting [26]; 0.2% under setting [27]; 0.19% under setting [28]; 0.18% under setting [29]; 0.82% under setting [30]. Also, the viability, T/C was 0.19% under setting [31]; 1.51% under setting [32]; 1.3% under setting [33]; 0.18% under setting [34]; 0.26% under setting [35]; 1.69% under setting [36]. For the same compound, the viability, T/C was 0.23% under setting [37]; 0.28% under setting [38]; 1.49% under setting [39]; 0.34% under setting [40]; 0.56% under setting [41]; 1.29% under setting [42].
With `CC1COCCN1c1cc(C2(S(C)(=N)=O)CC2)nc(-c2ccnc3[nH]ccc23)n1` (centres undefined), the viability, T/C reads like this: (compound 0.0316 µM) 93.5% and 106%; (compound 0.1 µM) 67% and 101%; (compound 0.316 µM) 84.1% and 104%; (compound 1 µM) 75.9% and 102%; (compound 3.16 µM) 49.7% and 87.8%; (compound 10 µM) 26.7% and 56.4%. Besides, the IC50 (curve of compound) was 3110 nM and > 10000 nM.
As to `CC(C)CC(NC(=O)C(Cc1ccccc1)NC(=O)c1cnccn1)B(O)O` (centres undefined), the viability, T/C by setting is: (compound 0.000949 µM) 84.2% and 86.5%; (compound 0.003 µM) 34.9% and 45.1%; (compound 0.00949 µM) 0.64% and 3.31%; (compound 0.03 µM) 1.34% and 1.82%; (compound 0.0949 µM) 0.77% and 0.3%; (compound 0.3 µM) 0.23% and 0.22%. Also, the IC50 (curve of compound) was 2.11 nM and 2.62 nM.
Turning to `CC(CO)NC(=O)c1cc(-c2ccc(Cl)cc2)nn(-c2cnn(C)c2)c1=O` (centres undefined), the viability, T/C (compound 0.0316 µM) is 105% and 101%; the viability, T/C (compound 0.1 µM) is 105% and 90.6%; the viability, T/C (compound 0.316 µM) is 94.4% and 95.7%; the viability, T/C (compound 1 µM) is 94.6% and 100%; the viability, T/C (compound 3.16 µM) was 92.7% and 107%; the viability, T/C (compound 10 µM) was 89.6% and 82.1%. Under “curve of compound”, the IC50 was > 10000 nM.
Regarding `CC(CO)NC(=O)c1cc(-c2ccc(Cl)cc2)nn(-c2cnn(C)c2)c1=O` (centres undefined) + CNC(=O)c1ccc(Nc2nc(OC3CCCC3)c3c(-c4ccc5nc(C)oc5c4)c[nH]c3n2)c(OC)c1, the IC50 under setting [1] is > 10000 nM; the IC50 under setting [2] was > 10000 nM; the IC50 under setting [3] was > 10000 nM; the IC50 under setting [4] is < 31.6 nM; the IC50 under setting [5] is < 31.6 nM; the IC50 under setting [6] was < 31.6 nM. Also, the viability, T/C by setting is: under setting [7], 117%; under setting [8], 99.4%; under setting [9], 94.4%; under setting [10], 97.2%; under setting [11], 97.2%; under setting [12], 88.2%. In addition, the viability, T/C is, setting by setting: under setting [13], 102%; under setting [14], 99.6%; under setting [15], 85.7%; under setting [16], 96.7%; under setting [17], 95%; under setting [18], 85.1%. Besides, the viability, T/C under setting [19] was 79.1%; the viability, T/C under setting [20] is 76.8%; the viability, T/C under setting [21] is 74.6%; the viability, T/C under setting [22] is 77.2%; the viability, T/C under setting [23] was 80.5%; the viability, T/C under setting [24] is 66.8%. Also, the viability, T/C by setting is: under setting [25], 48.9%; under setting [26], 51.3%; under setting [27], 44%; under setting [28], 32.6%; under setting [29], 55.4%; under setting [30], 53.1%. Moreover, the viability, T/C runs as follows: under setting [31], 24.6%; under setting [32], 37%; under setting [33], 39.2%; under setting [34], 28%; under setting [35], 39.4%; under setting [36], 35.2%. Also, the viability, T/C is, setting by setting: under setting [37], 18.5%; under setting [38], 26.8%; under setting [39], 27.3%; under setting [40], 22.2%; under setting [41], 30%; under setting [42], 27.7%.

Source of the values: PubChem BioAssay AID2060626 (Molecular Pharmacology Branch, DTP, NCI, 2025).
